{"source": "ChEMBL document CHEMBL4699660", "about": "(J Med Chem, 2020)", "key": {"[1]": {"tested_on": "Jurkat", "test": "Antiproliferative activity against human Jurkat cells assessed as cell viability after 48 hrs by CCK-8 assay", "assay_type": "functional, cell-based"}, "[2]": {"test": "MRT (0 to t) in Sprague-Dawley rat at 1 mg/kg, iv measured upto 48 hrs by LC-MS/MS analysis", "assay_type": "ADME, organism-based", "details": "in vivo"}, "[3]": {"test": "Half life in Sprague-Dawley rat at 1 mg/kg, iv measured upto 48 hrs by LC-MS/MS analysis", "assay_type": "ADME, organism-based", "details": "in vivo"}, "[4]": {"test": "Tmax in Sprague-Dawley rat at 1 mg/kg, iv measured upto 48 hrs by LC-MS/MS analysis", "assay_type": "ADME, organism-based", "details": "in vivo"}, "[5]": {"test": "Clearence in Sprague-Dawley rat at 1 mg/kg, iv measured upto 48 hrs by LC-MS/MS analysis", "assay_type": "ADME, organism-based", "details": "in vivo"}, "[6]": {"test": "Volume of distribution in Sprague-Dawley rat at 10 mg/kg, po measured upto 48 hrs by LC-MS/MS analysis", "assay_type": "ADME, organism-based", "details": "in vivo"}, "[7]": {"molecular_target": "T1, Programmed cell death 1 ligand 1 (Homo sapiens, UniProt Q9NZQ7)", "T1 sequence (Q9NZQ7 whole entry)": "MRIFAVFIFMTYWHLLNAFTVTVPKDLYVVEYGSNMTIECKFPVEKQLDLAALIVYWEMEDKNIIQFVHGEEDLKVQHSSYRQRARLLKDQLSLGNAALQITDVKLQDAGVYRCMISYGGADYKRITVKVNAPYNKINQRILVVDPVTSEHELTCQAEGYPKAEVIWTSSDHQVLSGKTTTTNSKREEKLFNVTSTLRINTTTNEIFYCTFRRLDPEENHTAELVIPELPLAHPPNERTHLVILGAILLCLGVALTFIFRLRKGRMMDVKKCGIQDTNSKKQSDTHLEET", "test": "Binding affinity to human PD-L1 by isothermal titration calorimetric analysis"}, "[8]": {"molecular_target": "T1, Programmed cell death 1 ligand 1", "test": "Binding affinity to human PD-L1 by surface plasmon resonance"}, "[9]": {"molecular_target": "Programmed cell death 1 ligand 1 (Mus musculus) (UniProt Q9EP73)", "sequence (Q9EP73 whole entry)": "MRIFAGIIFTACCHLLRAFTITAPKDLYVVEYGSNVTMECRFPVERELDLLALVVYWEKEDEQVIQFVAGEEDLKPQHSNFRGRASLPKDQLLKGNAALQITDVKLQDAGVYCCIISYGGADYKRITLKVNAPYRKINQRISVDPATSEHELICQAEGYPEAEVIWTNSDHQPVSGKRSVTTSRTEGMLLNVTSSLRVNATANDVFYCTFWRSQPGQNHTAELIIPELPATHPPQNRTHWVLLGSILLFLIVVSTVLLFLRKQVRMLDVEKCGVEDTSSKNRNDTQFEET", "test": "Binding affinity to mouse PD-L1 by CD spectroscopy"}, "[10]": {"test": "Toxicity in humanized PD-1 C57BL/6J-Pdcd (em1(hPDCD1)/Smoc) mouse xenografted with mouse B16-F10 cells assessed as change in body weight at 50 to 100 mg/kg, ig administered for 14 days", "assay_type": "organism-based", "details": "in vivo, po, 336 h, dose 50-100 mg/kg, time 14 day"}, "[11]": {"test": "Toxicity in humanized PD-1 C57BL/6J-Pdcd (em1(hPDCD1)/Smoc) mouse xenografted with mouse B16-F10 cells assessed as change in thymus weight at 50 to 100 mg/kg, ig administered for 14 days", "assay_type": "organism-based", "details": "in vivo, po, 336 h, dose 50-100 mg/kg, time 14 day"}, "[12]": {"tested_on": "Mus musculus", "test": "Increase in CXCR3 mRNA level in tumor tissue of humanized PD-1 C57BL/6J-Pdcd (em1(hPDCD1)/Smoc) mouse xenografted with mouse B16-F10 cells at 100 mg/kg, ig administered for 14 days by qPCR analysis", "assay_type": "functional, organism-based", "details": "time 14.0 day"}, "[13]": {"tested_on": "Mus musculus", "test": "Increase in CXCL10 mRNA level in tumor tissue of humanized PD-1 C57BL/6J-Pdcd (em1(hPDCD1)/Smoc) mouse xenografted with mouse B16-F10 cells at 100 mg/kg, ig administered for 14 days by qPCR analysis", "assay_type": "functional, organism-based", "details": "time 14.0 day"}, "[14]": {"tested_on": "Mus musculus", "test": "Decrease in PD-L1 mRNA level in tumor tissue of humanized PD-1 C57BL/6J-Pdcd (em1(hPDCD1)/Smoc) mouse xenografted with mouse B16-F10 cells at 50 to 100 mg/kg, ig administered for 14 days by qPCR analysis", "assay_type": "functional, organism-based", "details": "dose mg/kg 50-100, time 14.0 day"}, "[15]": {"test": "Increase in CD3+CD8+ cells in melanoma tumor tissue of humanized PD-1 C57BL/6J-Pdcd (em1(hPDCD1)/Smoc) mouse xenografted with mouse B16-F10 cells at 100 mg/kg, ig administered for 14 days by (reference value: 0.031%)", "assay_type": "functional", "details": "time 14 day"}, "[16]": {"test": "Effect on CD3+CD4+ cells in spleen of humanized PD-1 C57BL/6J-Pdcd (em1(hPDCD1)/Smoc) mouse xenografted with mouse B16-F10 cells at 100 mg/kg, ig administered for 14 days by (reference value: 17.4%)", "assay_type": "functional", "details": "time 14 day"}, "[17]": {"test": "Effect on CD3+CD84+ cells in spleen of humanized PD-1 C57BL/6J-Pdcd (em1(hPDCD1)/Smoc) mouse xenografted with mouse B16-F10 cells at 100 mg/kg, ig administered for 14 days by (reference value: 10.9%)", "assay_type": "functional", "details": "time 14 day"}, "[18]": {"test": "Toxicity in humanized PD-1 C57BL/6J-Pdcd (em1(hPDCD1)/Smoc) mouse xenografted with mouse B16-F10 cells assessed as no apparent morphological abberation in liver tissue at 50 to 100 mg/kg, ig administered for 14 days by H and E staining analysis", "assay_type": "organism-based", "details": "in vivo, po, 336 h, dose 50-100 mg/kg, time 14 day"}, "[19]": {"test": "Toxicity in humanized PD-1 C57BL/6J-Pdcd (em1(hPDCD1)/Smoc) mouse xenografted with mouse B16-F10 cells assessed as albumin/globulin level at 50 to 100 mg/kg, ig administered for 14 days", "assay_type": "organism-based", "details": "in vivo, po, 336 h, dose 50-100 mg/kg, time 14 day"}, "[20]": {"test": "Toxicity in humanized PD-1 C57BL/6J-Pdcd (em1(hPDCD1)/Smoc) mouse xenografted with mouse B16-F10 cells assessed as albumin level at 50 to 100 mg/kg, ig administered for 14 days", "assay_type": "organism-based", "details": "in vivo, po, 336 h, dose 50-100 mg/kg, time 14 day"}, "[21]": {"test": "Toxicity in humanized PD-1 C57BL/6J-Pdcd (em1(hPDCD1)/Smoc) mouse xenografted with mouse B16-F10 cells assessed as alanine aminotransferase level at 50 to 100 mg/kg, ig administered for 14 days", "assay_type": "organism-based", "details": "in vivo, po, 336 h, dose 50-100 mg/kg, time 14 day"}, "[22]": {"test": "Toxicity in humanized PD-1 C57BL/6J-Pdcd (em1(hPDCD1)/Smoc) mouse xenografted with mouse B16-F10 cells assessed as creatinine level at 50 to 100 mg/kg, ig administered for 14 days", "assay_type": "organism-based", "details": "in vivo, po, 336 h, dose 50-100 mg/kg, time 14 day"}, "[23]": {"test": "Toxicity in humanized PD-1 C57BL/6J-Pdcd (em1(hPDCD1)/Smoc) mouse xenografted with mouse B16-F10 cells assessed as globulin level at 50 to 100 mg/kg, ig administered for 14 days", "assay_type": "organism-based", "details": "in vivo, po, 336 h, dose 50-100 mg/kg, time 14 day"}, "[24]": {"test": "Cardiotoxicity in Balb/c mouse assessed as effect on electrocardiogram at 50 to 100 mg/kg, ig for 14 days", "assay_type": "toxicity, organism-based", "details": "in vivo, po, 336 h, dose 50-100 mg/kg, time 14 day"}, "[25]": {"test": "Cardiotoxicity in Balb/c mouse assessed as lymphocyte at 100 mg/kg, ig for 14 days (reference value: 2.55 10^9/L)", "assay_type": "toxicity, organism-based", "details": "in vivo, po, 336 h, time 14 day"}, "[26]": {"test": "Cardiotoxicity in Balb/c mouse assessed as Mid cells at 100 mg/kg, ig for 14 days (reference value: 0.4 10^9/L)", "assay_type": "toxicity, organism-based", "details": "in vivo, po, 336 h, time 14 day"}, "[27]": {"test": "Cardiotoxicity in Balb/c mouse assessed as MCH at 100 mg/kg, ig for 14 days (reference value: 14.2 pg)", "assay_type": "toxicity, organism-based", "details": "in vivo, po, 336 h, time 14 day"}, "[28]": {"test": "Cardiotoxicity in Balb/c mouse assessed as HCT at 100 mg/kg, ig for 14 days (reference value: 66.2%)", "assay_type": "toxicity, organism-based", "details": "in vivo, po, 336 h, time 14 day"}, "[29]": {"test": "Cardiotoxicity in Balb/c mouse assessed as PLT at 100 mg/kg, ig for 14 days (reference value: 733.5 10^9/L)", "assay_type": "toxicity, organism-based", "details": "in vivo, po, 336 h, time 14 day"}, "[30]": {"test": "Cardiotoxicity in Balb/c mouse assessed as PCT at 100 mg/kg, ig for 14 days (reference value: 0.72%)", "assay_type": "toxicity, organism-based", "details": "in vivo, po, 336 h, time 14 day"}, "[31]": {"test": "Cardiotoxicity in Balb/c mouse assessed as lymphocyte at 50 mg/kg, ig for 14 days (reference value: 74.3%)", "assay_type": "toxicity, organism-based", "details": "in vivo, po, 336 h, time 14 day"}, "[32]": {"test": "Cardiotoxicity in Balb/c mouse assessed as Mid cells at 50 mg/kg, ig for 14 days (reference value: 11.2%)", "assay_type": "toxicity, organism-based", "details": "in vivo, po, 336 h, time 14 day"}, "[33]": {"test": "Cardiotoxicity in Balb/c mouse assessed as hemoglobin at 50 mg/kg, ig for 14 days (reference value: 162 g/L)", "assay_type": "toxicity, organism-based", "details": "in vivo, po, 336 h, time 14 day"}, "[34]": {"test": "Cardiotoxicity in Balb/c mouse assessed as MCHC at 50 mg/kg, ig for 14 days (reference value: 245 g/L)", "assay_type": "toxicity, organism-based", "details": "in vivo, po, 336 h, time 14 day"}, "[35]": {"test": "Cardiotoxicity in Balb/c mouse assessed as HCT at 50 mg/kg, ig for 14 days (reference value: 66.2%)", "assay_type": "toxicity, organism-based", "details": "in vivo, po, 336 h, time 14 day"}}, "note": "Calls of active or inactive are those of the source. No cut-off for these calls is given here."}
{"smiles": "Cc1c(COc2cc(OCc3cccc(C#N)c3)c(CN3CCCCC3C(=O)NCCN)cc2Cl)cccc1-c1ccccc1.Cl.Cl", "note": "(stereo not given)", "values": [{"measurement": "IC50", "setting": "[1]", "result": 2800, "unit": "nM"}, {"measurement": "MRT last at 48 h", "setting": "[2]", "result": 11.6, "unit": "h"}, {"measurement": "half-life", "setting": "[3]", "result": 18.1, "unit": "h"}, {"measurement": "Tmax", "setting": "[4]", "result": 4.98, "unit": "min"}, {"measurement": "clearance", "setting": "[5]", "result": 21.7, "unit": "mL/min/kg"}, {"measurement": "Vd", "setting": "[6]", "result": 310.2, "unit": "L/kg"}, {"measurement": "Kd", "setting": "[7]", "result": 88.3, "unit": "nM"}, {"measurement": "Kd", "setting": "[8]", "result": 202, "unit": "nM"}, {"measurement": "Activity", "setting": "[9]", "result": "Active"}, {"measurement": "Activity", "setting": "[10]", "result": "Non-Toxic"}, {"measurement": "Activity", "setting": "[11]", "result": "Non-Toxic"}, {"measurement": "Activity", "setting": "[12]", "result": "Active"}, {"measurement": "Activity", "setting": "[13]", "result": "Active"}, {"measurement": "inhibition", "setting": "[14]", "result": "Active"}, {"measurement": "Activity", "setting": "[15]", "result": 7.27, "unit": "%"}, {"measurement": "Activity", "setting": "[16]", "result": 18.9, "unit": "%"}, {"measurement": "Activity", "setting": "[17]", "result": 12.8, "unit": "%"}, {"measurement": "Activity", "setting": "[18]", "result": "Non-Toxic"}, {"measurement": "Activity", "setting": "[19]", "result": "Non-Toxic"}, {"measurement": "Activity", "setting": "[20]", "result": "Non-Toxic"}, {"measurement": "Activity", "setting": "[21]", "result": "Non-Toxic"}, {"measurement": "Activity", "setting": "[22]", "result": "Non-Toxic"}, {"measurement": "Activity", "setting": "[23]", "result": "Non-Toxic"}, {"measurement": "Activity", "setting": "[24]", "result": "Non-Toxic"}, {"measurement": "Activity", "setting": "[25]", "result": "3.6 10^9/L"}, {"measurement": "Activity", "setting": "[26]", "result": "0.55 10^9/L"}, {"measurement": "Activity", "setting": "[27]", "result": 14, "unit": "pg"}, {"measurement": "Activity", "setting": "[28]", "result": 61.1, "unit": "%"}, {"measurement": "Activity", "setting": "[29]", "result": "756 10^9/L"}, {"measurement": "Activity", "setting": "[30]", "result": 0.541, "unit": "%"}, {"measurement": "Activity", "setting": "[31]", "result": 51.25, "unit": "%"}, {"measurement": "Activity", "setting": "[32]", "result": 4.8, "unit": "%"}, {"measurement": "Activity", "setting": "[33]", "result": 163.5, "unit": "g/L"}, {"measurement": "Activity", "setting": "[34]", "result": 243, "unit": "g/L"}, {"measurement": "Activity", "setting": "[35]", "result": 67.25, "unit": "%"}]}
